Laboratory results reported in patent US11292791B2 (priority 2017, dated 2022).

Biological target: BRD4 (Homo sapiens (Human), UniProt O60885)
Details: read-out: BRD4 IC50 (μM gmean)

SMILES	IC50 [µM]
COC(=O)N1c2ccc3c(nc(CCn4cccn4)n3CCN(C)[C@H]3CCOC3)c2CC[C@@H]1C [Example 302]	1 to 1000
COC(=O)N1c2ccc3c(nc(Cc4ccccc4)n3[C@@H]3CC[C@@H](CO)OC3)c2CC[C@@H]1C [Example 66, methyl (S)-2-benzyl-3-((3R,6S)-6-(hydroxymethyl)tetrahydro-2H-pyran-3-yl)-7-methyl-3,7,8,9-tetrahydro-6H-imidazo[4,5-f]quinoline-6-carboxylate]	1 to 1000
COC(=O)N1c2ccc3c(nc(CCn4ccccc4=O)n3CC(=O)NC[C@H]3CCCO3)c2CC[C@@H]1C [Example 376]	1 to 1000
COC(=O)N1c2ccc3c(nc(Cc4ccccc4)n3C[C@@H]3CCCNC3)c2CC[C@@H]1C [Example 86]	1 to 1000
COC(=O)N1c2ccc3c(nc(CC(C(=O)O)c4ccc5ccccc5c4)n3C3CCCOC3)c2CC[C@@H]1C (some centres unmarked) [Example 468]	1 to 1000
COC(=O)N1c2ccc3c(nc(Nc4cccc(F)c4)n3[C@@H]3CCC[C@@H](C(=O)O)C3)c2CC[C@@H]1C [Example 802]	1 to 1000
COC(=O)N1c2ccc3c(nc(CCn4cccn4)n3CC(=O)N3CC[C@H](NC(C)=O)C3)c2CC[C@@H]1C [Example 335, methyl (S)-2-(2-(1H-pyrazol-1-yl)ethyl)-3-(2-((S)-3-acetamidopyrrolidin-1-yl)-2-oxoethyl)-7-methyl-3,7,8,9-tetrahydro-6H-imidazo[4,5-f]quinoline-6-carboxylate]	1 to 1000
COC(=O)N1c2ccc3c(nc(CCc4ccc(F)c(F)c4)n3[C@@H]3CCC[C@@H](C(=O)O)C3)c2CC[C@@H]1C [Example 509]	1 to 1000
COC(=O)N1c2ccc3c(nc(CCn4cccn4)n3CC(=O)N(C)CC(C)(C)O)c2CC[C@@H]1C [Example 361]	1 to 1000
COC(=O)N1c2ccc3c(nc(C(=O)Nc4ccccc4Cl)n3[C@@H]3CCC[C@@H](C(=O)O)C3)c2CC[C@@H]1C [Example 961]	1 to 1000
COC(=O)N1c2ccc3c(nc(S(=O)(=O)c4ccccc4)n3[C@H]3CC[C@H](C(=O)O)CC3)c2CC[C@@H]1C [Example 895]	1 to 1000
COC(=O)N1c2ccc3c(nc(CC[C@H]4CCOC4)n3[C@@H]3CCC[C@@H](C(=O)O)C3)c2CC[C@@H]1C [Example 804]	1 to 1000
COC(=O)N1c2ccc3c(nc(CCn4ccccc4=O)n3CC(=O)N(C)[C@H]3CCOC3)c2CC[C@@H]1C [Example 387]	1 to 1000
COC(=O)N1c2ccc3c(nc(C(C)Cc4cnn(C)c4)n3C3CCC(C(=O)O)CC3)c2CC[C@@H]1C (some centres unmarked) [Example 894]	1 to 1000
COC(=O)N1c2ccc3c(nc(CCn4cccn4)n3CCN3CC[C@H](C(N)=O)C3)c2CC[C@@H]1C [Example 303]	1 to 1000
COC(=O)N1c2ccc3c(nc(CCn4cccn4)n3CCN3CCOCC3)c2CC[C@@H]1C [Example 226]	1 to 1000
COC(=O)N1c2ccc3c(nc(Nc4ccc(Cl)cc4)n3[C@@H]3CCC[C@@H](C(=O)O)C3)c2CC[C@@H]1C [Example 831]	1 to 1000
COC(=O)N1c2ccc3c(nc(CCn4nccn4)n3[C@H]3CC[C@H](C(=O)O)CC3)c2CC[C@@H]1C [Example 32]	1 to 1000
COC(=O)N1c2ccc3c(nc(Cc4ccccc4)n3CC3CCS(=O)(=O)CC3)c2CC[C@@H]1C [Example 253]	1 to 1000
COC(=O)N1c2ccc3c(nc(CC(C(=O)O)c4ccc(F)cc4)n3C3CCCOC3)c2CC[C@@H]1C (some centres unmarked) [Example 773]	1 to 1000
COC(=O)N1c2ccc3c(nc(Cc4ccc(OC)c(OC)c4)n3[C@H]3CC[C@H](C(=O)O)CC3)c2CC[C@@H]1C [Example 740]	1 to 1000
COC(=O)N1c2ccc3c(nc(CCc4ccccc4C(=O)O)n3C3CCOCC3)c2CC[C@@H]1C [Example 743]	1 to 1000

SMILES	IC50 [µM]
COC(=O)N1c2ccc3c(nc(CCn4cccn4)n3CCN3CCC(CO)CC3)c2CC[C@@H]1C [Example 299]	1 to 1000
COC(=O)N1c2ccc3c(nc(C(O)c4cc(F)ccc4F)n3C3CCCC(C(=O)O)C3)c2CC[C@@H]1C (some centres unmarked) [Example 449]	1 to 1000
COC(=O)N1c2ccc3c(nc(CCn4ccccc4=O)n3CC(=O)N(C)CC(C)(C)O)c2CC[C@@H]1C [Example 389]	1 to 1000
COC(=O)N1c2ccc3c(nc(CC(C(=O)O)c4ccc(Cl)cc4)n3C3CCCOC3)c2CC[C@@H]1C (some centres unmarked) [Example 495]	1 to 1000
COC(=O)N1c2ccc3c(nc(CC(C(=O)O)c4ccc(C)cc4)n3C3CCCOC3)c2CC[C@@H]1C (some centres unmarked) [Example 872]	1 to 1000
COC(=O)N1c2ccc3c(nc(Nc4cc(C)nn4C)n3[C@H]3CC[C@H](C(=O)O)CC3)c2CC[C@@H]1C [Example 915]	1 to 1000
COC(=O)N1c2ccc3c(nc(CC(C(=O)O)c4ccc(C(F)F)cc4)n3C3CCCOC3)c2CC[C@@H]1C (some centres unmarked) [Example 902]	1 to 1000
COC(=O)N1c2ccc3c(nc(OCCn4cc(Cl)cn4)n3[C@@H]3CCC[C@@H](C(=O)O)C3)c2CC[C@@H]1C [Example 810]	1 to 1000
COC(=O)N1c2ccc3c(nc(Cc4ccc(OC)cc4)n3C3CCNCC3)c2CC[C@@H]1C [Example 107]	1 to 1000
COC(=O)N1c2ccc3c(nc(Cc4cccc(F)c4)n3C3CCNCC3)c2CC[C@@H]1C [Example 102]	1 to 1000
COC(=O)N1c2ccc3c(nc(CC(C(=O)O)c4ccc(C5CC5)cc4)n3C3CCCOC3)c2CC[C@@H]1C (some centres unmarked) [Example 904]	1 to 1000
COC(=O)N1c2ccc3c(nc(Cc4ccccc4)n3[C@@H]3CCC[C@@H](c4nnn[nH]4)C3)c2CC[C@@H]1C [Example 281, methyl (S)-3-((1R,3R)-3-(1H-tetrazol-5-yl)cyclohexyl)-2-benzyl-7-methyl-3,7,8,9-tetrahydro-6H-imidazo[4,5-f]quinoline-6-carboxylate]	1 to 1000
COC(=O)N1c2ccc3c(nc(COC4CCCCC4)n3[C@H]3CC[C@H](C(=O)O)CC3)c2CC[C@@H]1C [Example 692]	1 to 1000
COC(=O)N1c2ccc3c(nc(Cc4ccc(OC(F)F)cc4)n3[C@@H]3CCC[C@@H](C(=O)O)C3)c2CC[C@@H]1C [Example 533]	1 to 1000
COC(=O)N1c2ccc3c(nc(CCn4ccccc4=O)n3CC(=O)NC3COC3)c2CC[C@@H]1C [Example 393]	1 to 1000
COC(=O)N1c2ccc3c(nc(C(C)Cc4ccccc4)n3C3CCNCC3)c2CC[C@@H]1C (some centres unmarked) [Example 803]	1 to 1000
COC(=O)N1c2ccc3c(nc(C[C@H]4CC[C@H](OC)CC4)n3[C@@H]3CCC[C@@H](C(=O)O)C3)c2CC[C@@H]1C [Example 723]	1 to 1000
COC(=O)N1c2ccc3c(nc(Cc4ccc(OC)c(F)c4)n3[C@H]3CC[C@H](C(=O)O)CC3)c2CC[C@@H]1C [Example 28]	1 to 1000
COC(=O)N1c2ccc3c(nc(Nc4c(C)n[nH]c4C)n3[C@H]3CC[C@H](C(=O)O)CC3)c2CC[C@@H]1C [Example 909]	1 to 1000
COC(=O)N1c2ccc3c(nc(CCn4cccn4)n3CC(=O)NCc3nnc(C)n3C)c2CC[C@@H]1C [Example 343]	1 to 1000
COC(=O)N1c2ccc3c(nc(CCn4cccn4)n3CCN(C)CCO)c2CC[C@@H]1C [Example 296]	1 to 1000
COC(=O)N1c2ccc3c(nc(CCn4cccn4)n3C3CCS(=O)(=O)CC3)c2CC[C@@H]1C [Example 262]	1 to 1000

SMILES	IC50 [µM]
COC(=O)N1c2ccc3c(nc(CCc4cnc(C)o4)n3[C@H]3CC[C@H](C(=O)O)CC3)c2CC[C@@H]1C [Example 33]	1 to 1000
COC(=O)N1c2ccc3c(nc(C(c4ccc(OC)c(F)c4)C(C)C)n3C3CCC(C(=O)O)CC3)c2CC[C@@H]1C (some centres unmarked) [Example 466]	1 to 1000
COC(=O)N1c2ccc3c(nc(C(C)(C)c4ccccc4)n3[C@H]3CC[C@H](C(=O)O)CC3)c2CC[C@@H]1C [Example 646]	1 to 1000
COC(=O)N1c2ccc3c(nc(C(=O)NC4CCCC4)n3[C@@H]3CCC[C@@H](C(=O)O)C3)c2CC[C@@H]1C [Example 922]	1 to 1000
COC(=O)N1c2ccc3c(nc(CCc4cc(C)no4)n3[C@H]3CC[C@H](C(=O)O)CC3)c2CC[C@@H]1C [Example 37]	1 to 1000
COC(=O)N1c2ccc3c(nc(CC(C(=O)O)c4ccc(C)c(F)c4)n3C3CCCOC3)c2CC[C@@H]1C (some centres unmarked) [Example 783]	1 to 1000
COC(=O)N1c2ccc3c(nc(CC4CCCCC4)n3[C@@H]3CCC[C@@H](C(=O)O)C3)c2CC[C@@H]1C [Example 575]	1 to 1000
COC(=O)N1c2ccc3c(nc(CCn4cccn4)n3CC(=O)NCc3cccnc3)c2CC[C@@H]1C [Example 346]	1 to 1000
COC(=O)N1c2ccc3c(nc(C(C)Cn4cccn4)n3C3CCCC(C(=O)O)C3)c2CC[C@@H]1C (some centres unmarked) [Example 878]	1 to 1000
COC(=O)N1c2ccc3c(nc(Cc4cccc(OC)c4)n3C3CC4(CNC4)C3)c2CC[C@@H]1C [Example 110]	1 to 1000
COC(=O)N1c2ccc3[nH]c(CCc4ccccn4)nc3c2CC[C@@H]1C [Example 12]	1 to 1000
COC(=O)N1c2ccc3c(nc(Cc4ccccc4)n3[C@H]3CC[C@](C)(C(=O)O)CC3)c2CC[C@@H]1C [Example 25]	1 to 1000
COC(=O)N1c2ccc3c(nc(N(C)c4ccc(F)cc4)n3[C@H]3CC[C@H](C(=O)O)CC3)c2CC[C@@H]1C [Example 805]	1 to 1000
COC(=O)N1c2ccc3c(nc(Cc4ccccc4)n3CC3CNC3)c2CC[C@@H]1C [Example 97]	1 to 1000
COC(=O)N1c2ccc3c(nc(CC(C(=O)O)c4ccc(C)cc4)n3C3CCCOC3)c2CC[C@@H]1C (some centres unmarked) [Example 497]	1 to 1000
COC(=O)N1c2ccc3c(nc(C(C)Cc4ccc(F)c(F)c4)n3C3CCCC(C(=O)O)C3)c2CC[C@@H]1C (some centres unmarked) [Example 720]	1 to 1000
COC(=O)N1c2ccc3c(nc(CCc4nc(C)no4)n3[C@H]3CC[C@H](C(=O)O)CC3)c2CC[C@@H]1C [Example 42]	1 to 1000
COC(=O)N1c2ccc3c(nc(C(c4ccccc4)[S+](C)[O-])n3C3CCC(C(=O)O)CC3)c2CC[C@@H]1C (some centres unmarked) [Example 725]	1 to 1000
COC(=O)N1c2ccc3c(nc(Nc4ccccc4)n3[C@H]3CC[C@H](C(=O)O)CC3)c2CC[C@@H]1C [Example 843]	1 to 1000
COC(=O)N1c2ccc3c(nc(CCn4cccn4)n3CC(=O)NC3COC3)c2CC[C@@H]1C [Example 365]	1 to 1000
COC(=O)N1c2ccc3c(nc(CC(C(=O)O)c4ccc(C5CC5)cc4)n3C3CCCOC3)c2CC[C@@H]1C (some centres unmarked) [Example 620]	1 to 1000
